# Measured values published in ChEMBL document CHEMBL1949543, “Synthesis and evaluation of novel monosubstituted sulfonylurea derivatives as antituberculosis agents” (Eur J Med Chem, 2012).
# Key:
# [1] = system: Mycobacterium tuberculosis; test: Antituberculosis activity against Mycobacterium tuberculosis H37Rv ATCC 27294; type: functional
# THP-1 = test: Cytotoxicity against human THP1 cells after 72 hrs by MTT assay; type: cell-based; settings: THP-1, 72 h
# Mycobacterium kansasii = test: Antituberculosis activity against Mycobacterium kansasii ATCC 12478; type: functional
# [2] = Selectivity ratio of IC50 for human THP1 cells to MIC for Mycobacterium tuberculosis H37Rv ATCC 27294; type: functional, THP-1
# [3] = Selectivity ratio of IC50 for human THP1 cells to MIC for Mycobacterium tuberculosis isolate A; type: functional, THP-1
# [4] = system: Mycobacterium tuberculosis; test: Antituberculosis activity against Mycobacterium tuberculosis isolate A; type: functional
# Mycobacterium avium = test: Antituberculosis activity against Mycobacterium avium ATCC 25291; type: functional, Mycobacterium avium subsp. avium ATCC 25291
SMILES,MIC [1],further results
Cc1ccnc(NC(=O)NS(=O)(=O)c2cc(NC(=O)C3CC3)ccc2Cl)n1,> 100 µg/mL,
COc1ccnc(NC(=O)NS(=O)(=O)c2cc(NC(=O)C(F)(F)F)ccc2Cl)n1,> 100 µg/mL,
C=CC(=O)Nc1ccc(Cl)c(S(=O)(=O)NC(=O)Nc2nccc(OC)n2)c1,40 µg/mL,
COc1ccnc(NC(=O)NS(=O)(=O)c2cc(NC(=O)COC(C)=O)ccc2Cl)n1,> 100 µg/mL,
COc1ccnc(NC(=O)NS(=O)(=O)c2cc(NC=O)ccc2Cl)n1,> 100 µg/mL,
CCOC(=O)C(=O)Nc1ccc(Cl)c(S(=O)(=O)NC(=O)Nc2nccc(OC)n2)c1,> 100 µg/mL,
Cc1ccnc(NC(=O)NS(=O)(=O)c2cc(NC(=O)C(C)C)ccc2Cl)n1,> 100 µg/mL,
COC(=O)c1ccccc1S(=O)(=O)NC(=O)Nc1nc(C)cc(C)n1 [SULFOMETURON METHYL],10 µg/mL,
CC(=O)OCC(=O)Nc1ccc(Cl)c(S(=O)(=O)NC(=O)Nc2nccc(C)n2)c1,> 100 µg/mL,
Cc1ccnc(NC(=O)NS(=O)(=O)c2cc(NC(=O)c3ccccc3)ccc2Cl)n1,100 µg/mL,
COc1ccnc(NC(=O)NS(=O)(=O)c2cc(NC(C)=O)ccc2Cl)n1,> 100 µg/mL,
Cc1ccnc(NC(=O)NS(=O)(=O)c2cc(NC(=O)C(C)(C)C)ccc2Cl)n1,> 100 µg/mL,
COc1ccnc(NC(=O)NS(=O)(=O)c2cc(NC(=O)C(C)C)ccc2Cl)n1,> 100 µg/mL,
Cc1ccnc(NC(=O)NS(=O)(=O)c2cc(NC(=O)C(F)(F)C(F)(F)C(F)(F)F)ccc2Cl)n1,> 100 µg/mL,
COc1ccnc(NC(=O)NS(=O)(=O)c2cc(NC(=O)CCl)ccc2Cl)n1,10 µg/mL,IC50 (THP-1): 180 µg/mL; MIC (Mycobacterium kansasii): 20 µg/mL; Selectivity ratio [2]: 10; Selectivity ratio [3]: 10; MIC [4]: 10 µg/mL; MIC (Mycobacterium avium): > 100 µg/mL
COc1ccnc(NC(=O)NS(=O)(=O)c2cc(NC(=O)C3CC3)ccc2Cl)n1,> 100 µg/mL,
C=CC(=O)Nc1ccc(Cl)c(S(=O)(=O)NC(=O)Nc2nccc(C)n2)c1,20 µg/mL,
CCOC(=O)C(=O)Nc1ccc(Cl)c(S(=O)(=O)NC(=O)Nc2nccc(C)n2)c1,> 100 µg/mL,
COc1ccnc(NC(=O)NS(=O)(=O)c2cc(NC(=O)C(F)(F)C(F)(F)C(F)(F)F)ccc2Cl)n1,> 100 µg/mL,
COc1ccnc(NC(=O)NS(=O)(=O)c2cc(NC(=O)C(C)Cl)ccc2Cl)n1 (stereo not drawn),> 100 µg/mL,
Cc1ccnc(NC(=O)NS(=O)(=O)c2cc(NC(=O)C(C)Cl)ccc2Cl)n1 (stereo not drawn),> 100 µg/mL,
Cc1ccnc(NC(=O)NS(=O)(=O)c2cc(NC(=O)C(F)(F)F)ccc2Cl)n1,> 100 µg/mL,
Cc1ccnc(NC(=O)NS(=O)(=O)c2cc(NC=O)ccc2Cl)n1,> 100 µg/mL,
CC(=O)Nc1ccc(Cl)c(S(=O)(=O)NC(=O)Nc2nccc(C)n2)c1,> 100 µg/mL,
COc1ccnc(NC(=O)NS(=O)(=O)c2cc(NC(=O)C(C)(C)C)ccc2Cl)n1,> 100 µg/mL,
Cc1ccnc(NC(=O)NS(=O)(=O)c2cc(NC(=O)CCl)ccc2Cl)n1,10 µg/mL,IC50 (THP-1): 138 µg/mL; MIC (Mycobacterium kansasii): 20 µg/mL; Selectivity ratio [2]: 10; Selectivity ratio [3]: 10; MIC [4]: 10 µg/mL; MIC (Mycobacterium avium): > 100 µg/mL
